pIC50, pKi: −log10 of the molar value. Where a SMILES comes first, the peptide text is derived from it. The star is where a group is joined. Cbz = O=C(OCc1ccccc1)*; CH2Cl = ClC*
Tests used:
[1] = molecular target: T1, Papain (Carica papaya, UniProt P00784); assay: Papain inhibition, Ki by Dixon plot (Table PKC1); format: biochemical; conditions: 0.05M Tris-HCl pH 7.5, 2 mM EDTA, 5 mM cysteine, 1% DMSO, 25° C., substrate Nα-Benzoyl-Arg-AMC; read-out: Ki P (Papain)
T1 sequence (P00784 134-345): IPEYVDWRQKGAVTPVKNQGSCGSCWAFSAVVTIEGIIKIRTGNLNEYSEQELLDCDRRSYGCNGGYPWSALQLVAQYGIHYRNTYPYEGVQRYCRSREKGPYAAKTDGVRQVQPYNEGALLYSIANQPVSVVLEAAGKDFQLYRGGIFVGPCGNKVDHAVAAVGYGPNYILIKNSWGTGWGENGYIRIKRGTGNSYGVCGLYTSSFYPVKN
Method: (§1) Various concentrations of inhibitors in dimethylsulfoxide (DMSO) were added to the assay mixture, which contained buffer and substrate. The reaction was started by the addition of the enzyme and the hydrolysis rates were followed spectrophotometrically or fluorimetrically. 88 mM KH2 PO4, 12 mM Na2 HPO4, 1.33 mM EDTA, 2.7 mM cysteine, pH 6.0 was used as a buffer for cathepsin B; and 20 mM Hepes, 10 mM CaCl2, 10 mM β-mercaptoethanol, pH 7.2 buffer was utilized for calpain I and calpain II.
(§2) All peptide thioester hydrolysis rates were measured with assay mixtures containing 4,4'-dithiodipyridine [e324=19800 M-1 cm-1; Grasetti & Murray, Arch. Biochem. Biophys. 119, pp 41-49 (1967)]. Papain was assayed with Bz-Arg-AMC or Bz-Arg-NA [Kanaoka et al., Chem. Pharm. Bull. 25, 3126-3128 (1977)], and the AMC (7-amino-4-methylcoumarin) release was followed fluorimetrically (excitation at 380 nm, and emission at 460 nm). Cathepsin B was assayed with Z-Arg-Arg-AFC [Barrett and Kirschke, Methods Enzymol. 80, 535-561 (1981)], and the AFC (7-amino-4-trifluoromethylcoumarin) release was followed fluorimetrically (excitation at 400 nm, and emission at 505 nm). Calpain I from human erythrocytes and calpain II from rabbit were assayed using Suc-Leu-Tyr-AMC [Sasaki et al., J. Biol. Chem. 259, 12489-12494 (1984), hereby incorporated by reference], and the AMC (7-amino-4-methylcoumarin) release was followed fluorimetrically (excitation at 380 nm, and emission at 460 nm). Enzymatic hydrolysis rates were measured at various substrate and inhibitor concentrations, and Ki values were determined by Dixon plot.
The inhibition constants for papain shown in Table PKC1 were measured in 0.05M Tris-HCl, pH 7.5 buffer, containing 2 mM EDTA, 5 mM cysteine (freshly prepared), 1% DMSO, at 25° C., using N^α -Benzoyl-Arg-AMC as a substrate, except that those values of inhibition constants for papain marked with an "e" in Table PKC1 were measured in 50 mM Tris-HCl, pH 7.5 buffer, containing 20 mM EDTA, 5 mM cysteine, 9% DMSO, at 25° C., using N^α -Benzoyl-Arg-NA as a substrate.

[2] = molecular target: Cathepsin B (Bos taurus, UniProt P07688); assay: Cathepsin B inhibition, Z-Arg-Arg-AFC (Table PKC1); format: biochemical; conditions: pH 6.0 phosphate buffer, substrate Z-Arg-Arg-AFC; read-out: Ki CB (Cathepsin B)
Method: as §1, §2

[3] = molecular target: T2, Calpain I from human erythrocytes (Homo sapiens, UniProt P07384); assay: Calpain I inhibition, Suc-Leu-Tyr-AMC (Table PKC1); format: biochemical; conditions: 20 mM Hepes, 10 mM CaCl2, 10 mM β-mercaptoethanol, pH 7.2; read-out: Ki CI (Calpain I)
T2 construct: Calpain I from human erythrocytes and calpain II from rabbit were assayed using Suc-Leu-Tyr-AMC; from tissue; host or cells: human erythrocytes
T2 sequence (P07384 1-714): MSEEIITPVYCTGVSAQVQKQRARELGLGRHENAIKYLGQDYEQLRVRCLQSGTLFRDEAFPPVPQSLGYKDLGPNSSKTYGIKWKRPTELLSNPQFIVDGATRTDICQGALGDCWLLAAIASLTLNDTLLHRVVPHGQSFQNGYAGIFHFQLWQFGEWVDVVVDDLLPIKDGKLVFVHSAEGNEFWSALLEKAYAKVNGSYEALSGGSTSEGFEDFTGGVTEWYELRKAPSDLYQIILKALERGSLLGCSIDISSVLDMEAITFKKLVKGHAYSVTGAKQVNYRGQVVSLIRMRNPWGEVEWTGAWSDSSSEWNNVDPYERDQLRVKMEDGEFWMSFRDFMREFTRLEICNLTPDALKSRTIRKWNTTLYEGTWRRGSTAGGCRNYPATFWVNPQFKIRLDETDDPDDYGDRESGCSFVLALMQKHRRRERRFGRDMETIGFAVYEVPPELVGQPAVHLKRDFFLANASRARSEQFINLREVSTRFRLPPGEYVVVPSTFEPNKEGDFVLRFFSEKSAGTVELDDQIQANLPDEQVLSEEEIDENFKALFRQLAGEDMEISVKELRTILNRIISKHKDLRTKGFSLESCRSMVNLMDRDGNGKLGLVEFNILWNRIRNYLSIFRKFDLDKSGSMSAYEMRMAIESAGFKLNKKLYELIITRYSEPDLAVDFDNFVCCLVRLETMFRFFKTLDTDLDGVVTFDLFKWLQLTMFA
T2 sequence (P04632 1-268 partner): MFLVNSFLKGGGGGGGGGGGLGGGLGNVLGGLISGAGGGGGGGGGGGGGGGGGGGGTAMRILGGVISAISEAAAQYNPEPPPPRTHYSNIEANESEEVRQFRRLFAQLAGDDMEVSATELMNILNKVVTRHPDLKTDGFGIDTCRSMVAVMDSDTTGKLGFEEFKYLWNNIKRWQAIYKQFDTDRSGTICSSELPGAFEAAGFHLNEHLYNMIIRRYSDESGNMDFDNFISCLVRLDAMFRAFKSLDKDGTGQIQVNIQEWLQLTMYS
Method: as §1, with “Our discovery of Peptide Keto-Compounds effective as Calpain Inhibitors was made through assay of the Peptide Keto-Compounds as reversible inhibitors. Various” for “Various”
as §2

[4] = tested on: Calpain II; assay: Kapp/[I] progress curve method, Calpain II (Table 1C); format: biochemical; set-up: unit not given here; conditions: Rabbit Calpain II, Suc-leu-tyr-amidomethylcoumarin
Method: The Halo-Ketone Peptides, like the substituted isocoumarins, are irreversible inhibitors of Calpain. We determined the Kapp /[I] values for various members of this class of compounds against Calpains I and II. For comparison, we also determined these values against the additional thiol proteases Papain and Cathepsin B for at least one Halo-Ketone Peptide.
We assayed Calpain I and II using Suc-leu-tyr-amidomethylcoumarin. Papain was assayed using benzoyl-arg-4-nitroanilide, and Cathepsin B (bovine) was assayed using CBZ-lys-4-nitrophenyl ester. We followed the progress curve method of Tian and Tsou, Biochemistry, 21:1028-1032 (1982), the disclosure of which is hereby incorporated by reference, to derive kinetic data. Briefly, this method makes use of the equation: [formula] where [P.infin. ] represents the concentration of product formed at a time approaching infinity, A is the Kapp in the presence of substrate (S), K is the Michaelis constant and [Y] is the concentration of the inhibitor. Since [S] and [Y] are known and V and K can be determined, Kapp can be readily determined.

[5] = molecular target: T3, Calpain I (Homo sapiens, UniProt P07384); assay: Calpain I 14C-methylated casein proteolysis (Table 1A); format: biochemical
T3 sequence (P07384 1-714): T2 sequence (P07384 1-714)
T3 sequence (P04632 1-268 partner): T2 sequence (P04632 1-268 partner)
Method: (§3) The isocoumarins are irreversible inhibitors of Calpain. We obtained IC50 values for a variety of these Calpain Inhibitors as a kinetic analysis of these compounds.
(§4) Calpains I and II were purified by the method of (Yoshimura, et al. 1983). (Kitahara 1984) provides an alternative purification scheme. Calpain II may alternatively be purchased from Sigma Chemical Co. as "Calcium Activated Neutral Protease." In this assay, purified Calpain was incubated with ^14 C-methylated casein in the presence of various Heterocyclic Compounds and the amount of acid-soluble radioactivity released by the action of Calpain was measured.

[6] = tested on: Calpain in crude brain extracts; assay: Ca2+-stimulated spectrin proteolysis in crude brain extracts (Example 2); format: biochemical; conditions: 100 μM
Method in brief: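 Brain tissue was homogenized in 10 mM Tris pH 7.4, 0.32 M sucrose, 1 mM EGTA and 1 mM DTT, and nuclei and debris were removed. Calpain activity was scored as Ca^2+-stimulated proteolysis of endogenous spectrin.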

[7] = tested on: Calpain within platelets; assay: Platelet membrane permeation assay, spectrin proteolysis (Examples 4A, 4B); format: cell-based, rat; conditions: 100 μM, A23187 1 μM
Method in brief: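 Rat (Sprague-Dawley) platelets at 10^7 cells/ml in HEPES buffer pH 7.4, preincubated 5 min with inhibitor, then 5 min with 1 μM A23187 to activate calpain. Spectrin proteolysis assessed by SDS-PAGE and anti-spectrin immunoblot, quantified by densitometry.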

[8] = molecular target: T4, Calpain II (Homo sapiens, UniProt P17655); assay: Calpain II 14C-methylated casein proteolysis (Table 1A); format: biochemical
T4 construct: from tissue; purified by a cited method
T4 sequence (P17655 1-700): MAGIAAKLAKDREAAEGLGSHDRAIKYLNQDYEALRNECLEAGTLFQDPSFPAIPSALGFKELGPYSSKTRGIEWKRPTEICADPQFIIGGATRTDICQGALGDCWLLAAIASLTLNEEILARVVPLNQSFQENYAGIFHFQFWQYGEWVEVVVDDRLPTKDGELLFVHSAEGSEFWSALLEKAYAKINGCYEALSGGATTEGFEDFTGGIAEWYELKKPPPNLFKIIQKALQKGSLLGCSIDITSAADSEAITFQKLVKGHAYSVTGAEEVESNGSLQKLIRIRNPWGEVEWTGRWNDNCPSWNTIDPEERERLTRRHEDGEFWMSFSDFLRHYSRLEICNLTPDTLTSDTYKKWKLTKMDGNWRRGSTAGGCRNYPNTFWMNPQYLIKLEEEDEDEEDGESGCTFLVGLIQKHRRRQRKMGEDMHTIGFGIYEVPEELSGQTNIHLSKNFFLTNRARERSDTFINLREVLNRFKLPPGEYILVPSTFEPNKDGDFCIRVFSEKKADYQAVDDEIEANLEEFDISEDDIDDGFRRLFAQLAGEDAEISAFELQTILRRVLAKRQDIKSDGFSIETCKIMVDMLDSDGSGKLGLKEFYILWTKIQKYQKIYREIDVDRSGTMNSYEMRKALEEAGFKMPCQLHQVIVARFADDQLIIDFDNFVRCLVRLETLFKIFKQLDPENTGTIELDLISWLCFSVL
T4 sequence (P04632 1-268 partner): T2 sequence (P04632 1-268 partner)
Method: as §3, §4

[9] = tested on: N18-RE-105 cells; assay: Glutamate-induced cell death, MTT conversion (Example 5); format: cell-based; conditions: 5 mM glutamate, inhibitor 3 μg/ml, 19 hours
Method: Stock cultures of N18-RE-105 cells were maintained in Dulbecco's modified Eagle's medium (DMEM) containing 10% fetal bovine serum (FBS) and supplemented with hypoxanthine, aminopterin and thymidine (HAT). Subconfluent cultures were split and plated into 96-well plates. Twenty-four hours after plating the cells were exposed to fresh media containing glutamate and various concentrations of Calpain inhibitors. Control cells were not treated with glutamate. Conversion of MTT was measured 19 hours later as described. Nineteen hours after the onset of exposure, cell viability was quantitated by measuring the extent to which the cells convert 3(4,5-dimethylthiazol-2-yl)-2-5-diphenyltetrazolium bromide (MTT) to a blue formazan product, which occurs in the mitochondria of living but not dead cells (Pauwels et al., 1988). A higher absorbance is indicative of greater cell viability.

| Structure (SMILES) | Kapp/[I] CII [4] | inhibition of spectrin proteolysis in crude brain extracts [6] | inhibition of Calpain within platelets [7] | also measured |
| --- | --- | --- | --- | --- |
| CCOC(=O)C(=O)C(C)NC(=O)C(C)NC(=O)C(C)NC(=O)OCc1ccccc1 (racemic) [Z-Ala-Ala-DL-Ala-COOEt, Z-Ala-Ala-DL-Ala-CO2 Et] | – | – | – | pKi [1]: 5.82; pKi [2]: 5.66; pKi [3]: 3.70 |
| CC(=O)NC(C)C(=O)NC(C)C(=O)NC(C)C(=O)NC(C)C(=O)CCl (stereo not drawn) [Ac-Ala-Ala-Ala-Ala-CH2 Cl] (Ac-AAAA-CH2Cl; configuration not given here) | 1300 | – | – | – |
| N=C(N)SCCOc1oc(=O)c2cc(NC(=O)[C@H](N)Cc3ccccc3)ccc2c1Cl [D-Phe-NH-CiTEtOIC, 7-(D-phenylalanylamino)-4-chloro-3-(2-isothiureidoethoxy)isocoumarin] | – | significant inhibition | significant inhibition | pIC50 [5]: 3.70 |
| N=C(N)SCCCOc1oc(=O)c2cc(NC(=O)[C@@H](N)Cc3ccccc3)ccc2c1Cl [L-Phe-NH-CiTPrOIC, 7-(L-phenylalanylamino)-4-chloro-3-(3-isothiureidopropoxy)isocoumarin] | – | significant inhibition | significant inhibition | pIC50 [8]: 4.52 |
| N=C(N)SCCOc1oc(=O)c2cc(NC(=O)NCc3ccccc3)ccc2c1Cl [PhCH2 NHCONH-CiTEtOIC, 7-(benzylcarbamoylamino)-4-chloro-3-(2-isothiureidoethoxy)isocoumarin] | – | significant inhibition | significant inhibition | pIC50 [5]: 4.05 |
| Cc1ccc(S(=O)(=O)N[C@@H](Cc2ccccc2)C(=O)CCl)cc1 [TPCK, Tosyl-PheCH2 Cl, reference compound] | – | – | – | blue formazan product relative to control without glutamate [9]: ≥ 100% |
| CC(NC(=O)OCc1ccccc1)C(=O)NC(Cc1ccccc1)C(=O)CCl (stereo not drawn) [Z-Ala-Phe-CH2 Cl] | 2400 | – | – | – |
| CC(C)CC(NC(=O)CNC(=O)OCc1ccccc1)C(=O)NC(C)C(=O)CCl (stereo not drawn) [Z-Gly-Leu-Ala-CH2 Cl] (Cbz-Gly-Leu-Ala-CH2Cl; configuration not given here) | 210000 | significant inhibition | – | – |
| CC(C)C(NC(=O)OCc1ccccc1)C(=O)NC(Cc1ccccc1)C(=O)CCl (stereo not drawn) [Z-Val-Phe-CH2 Cl] (Cbz-Val-Phe-CH2Cl; configuration not given here) | 27200 | – | – | – |
